Values quoted from earlier work as cited in patent US20210121408A1, “Methods of Administering Cannabinoid to People Diagnosed With HIV” (priority 2019, published 2021).

CCCCCc1cc(O)c2c(c1)OC(C)(C)[C@@H]1CCC(C)=C[C@@H]21 [THC, delta-9-tetrahydrocannabinol]
solubility in ethanol, acetone, chloroform and light petroleum (ethanol, acetone, chloroform and light petroleum): soluble
solubility in water (water): insoluble
